US20240226287A1, “NOVEL LIPID COMPOUND AND LIPID NANOPARTICLE COMPOSITION COMPRISING THE SAME” (KOREA INSTITUTE OF SCIENCE AND TECHNOLOGY, priority 2022, published 2024)

Test system: Renilla Luciferase (R/L) mRNA
Experiment: Delivery efficiency: R/L protein expression after i.d. injection of mRNA-LNP into mouse ears (luminescence)
Format: in vivo, ICR mice
Conditions: conclusion from FIGS. 4 to 8; replacing cholesterol/butyl lithocholate in LNP
Procedure: mRNA-LNP was injected into the ears of ICR mice by I.D. in an amount of 5 μg/20 μl based on RNA to identify expression.
The experimental process is as follows. Each experimental group was prepared in a dose of 5 μg/20 μl based on RNA and then injected into each ear of mice by I.D. Thereafter, the expression was identified according to the maximum expression time of a target protein. In the case of R/L on which the experiment was actually carried out, expression and maintenance were identified according to two time periods which are 6 hours and 24 hours.
After anesthesia using an individual respiratory anesthesia machine, a drug to be administered that is suitable for the experimental condition was injected via an insulin syringe. Thereafter, euthanasia was performed using CO2 at each corresponding time, and then ears were cut off. While dipping the cut ears in 300 μl of 1× Renilla Lyswas buffer, ears were completely crushed using scissors and a homogenizer instrument. Thereafter, 20 μl was taken from the mixture solution, transferred to a white 96-well plate, and added with 100 μl of Promega's Renilla luciferase assay substrate, and then luminescence was measured to compare expression.

Structure (SMILES)	effect as substitute for the structure-retaining compound (R/L expression of the LNP)
C[C@H](CCC(=O)O)[C@H]1CC[C@H]2[C@@H]3CC[C@@H]4CC(=O)CC[C@]4(C)[C@H]3CC[C@]12C [3-oxo-5β-cholanoic acid]	excellent effects
CC1=C(/C=C/C(C)=C/C=C/C(C)=C/C=C/C=C(C)/C=C/C=C(C)/C=C/C2=C(C)CCCC2(C)C)C(C)(C)CCC1 [beta-carotene]	excellent effects
O=c1cc(-c2ccc(O)c(O)c2)oc2cc(O)cc(O)c12 [luteolin]	excellent effects
